Measurements as given in US20220193006A1, “COMPOSITIONS FOR EFFECTIVE MANAGEMENT OF FIBROBLAST-LIKE SYNOVIOCYTES MEDIATED RHEUMATOID ARTHRITIS” (priority 2020, published 2022).

Tests used:
Bax/Bcl-2 = assay: Apoptosis analysis, Bax/Bcl-2 RT-PCR expression in FLS; format: cell-based, rat; details: 24 h treatment; compared to the control; FIG. 19
Method: FLS apoptosis was assessed with RT-PCR expression study. In short, FLS cells (8×10^4 cells/well) were seeded in 24-well plates and incubated overnight at 37° C. under 5% CO2. After synchronization in serum-free medium for 24 h, cells were treated with or without the presence of samples in DMEM 10% FBS for 24 h. After the treatment period, the cells were collected, total cellular RNA was isolated and processed for RT-PCR analysis (Table 3) as mentioned before.

TNF-α = assay: Inflammatory markers, RT-PCR expression study in TNF-α induced FLS; format: cell-based; details: sample 10 μg/mL; FLS induced with 10 ng/ml rat TNF-α, 6 hrs; Control = 1, Induced 7.93
Method: (§1) FLS cells (8×10^4 cells/well) were seeded in 24-well plates and incubated overnight at 37° C. under 5% CO2. […] RT-PCR expression study: After 6 hrs of incubation, total cellular RNA from untreated and treated cells were isolated using Trizol Reagent® (Ambion, Life Technologies), according to the manufacturer's instructions, followed by RNase-free DNase I treatment (ThermoFisher Scientific) to remove any genomic DNA. Messenger RNA quality and concentration were analyzed spectrophotometrically (NanoDrop Lite, ThermoFisher Scientific). One microgram of total RNA was reverse transcribed into cDNA using Revert-aid First Strand cDNA synthesis kit (ThermoFisher Scientific), according to the manufacturer's instructions, and stored at −80° C. until use. Then 20 μl of the reaction mixture was subjected to PCR using SYBR green qPCR master mix for amplification of cDNAs using specifically designed primers procured from Eurofins India, as an internal control, the house keeping gene § actin was co-amplified with each reaction (Table 2). PCR was carried out in Light cycler 96 (Roche Life Science) and PCR conditions for genes were initial denaturation at 95° C. for 10 min followed by 35 cycles consisting of denaturation at 95° C. for 30 seconds, annealing of primers at 60° C. for 30 seconds, extension at 72° C. for 30 seconds and final cooling at 72° C. for 30 seconds (Table 1).

Cathepsin = assay: as above; format: cell-based; details: sample 10 μg/mL; FLS induced with 10 ng/ml rat TNF-α, 6 hrs; Control = 1, Induced 3.86
Method: as §1

IFN-γ = assay: as above; format: cell-based; details: sample 10 μg/mL; FLS induced with 10 ng/ml rat TNF-α, 6 hrs; Control = 1, Induced 5.7
Method: as §1

MMP-3 = assay: as above; format: cell-based; details: sample 10 μg/mL; FLS induced with 10 ng/ml rat TNF-α, 6 hrs; Control = 1, Induced 5.14
Method: as §1

CCL-5 = assay: as above; format: cell-based; details: sample 10 μg/mL; FLS induced with 10 ng/ml rat TNF-α, 6 hrs; Control = 1, Induced 7.16
Method: as §1

[1] = test system: Fibroblast-like synoviocytes (FLS); assay: WST-1 proliferation assay; format: cell-based, rat; details: 20 μg/mL, 72 hours; FIG. 5
[2] = test system: collagen-induced arthritis (CIA); assay: Collagen-induced arthritis study, arthritic score; format: in vivo, rat; details: positive control, 10 mg/kg; RA control is 3.5; scale 0-4; FIG. 32
Description: The […] (Table 4) collagen-induced arthritis (CIA) is a widely studied autoimmune model of rheumatoid arthritis. In this model, autoimmune arthritis is induced by immunization with type II collagen (CII) emulsified in complete Freund's adjuvant. These animals develop an autoimmune-mediated polyarthritis that shares several clinical, histological, and immunological features with the human autoimmune disease rheumatoid arthritis. The immune response to CII is characterized by both the stimulation of collagen-specific T cells and the production of high titers of antibody specific for both the immunogen (heterologous CII) and the autoantigen (mouse or rat CII).
Arthritis induced by administering type-2 collagen (chicken sternal cartilage, Sigma catalog no: C9301) which will be emulsified with incomplete Freund's adjuvant (FIA) at 1:1 ratio. On Day 0, Rats were intradermally injected with 200 μL (200 μg/animal) of collagen-FIA emulsion at the base of the tail (First Immunization). For booster injection the emulsion was prepared same as above and injected with 100 μL (100 μg/animal) of collagen-FIA emulsion given on day 7. Test sample administered from day 0 to day 20. […]

[3] = test system: Th17 and Treg cells in spleen; assay: Treg and Th17 analysis in spleen (flow cytometry); format: in vivo, rat; details: spleen of CIA rats; celecoxib control; RA control at 3.5; FIG. 35
Method: Spleen was obtained from collagen induced arthritis rats under sterile conditions for the lymphocyte isolation. The spleen was washed twice with PBS containing 100 μg/ml streptomycin and 100 U/ml penicillin and cut into small pieces with microsurgery scissors, homogenized with plunger end of the syringe and filtered using a 100 μm mesh strainer. The filtrate was centrifuged for 5 min at 1200 rpm, washed 1-2 times with PBS, after which 1×10^6 cells/ml were suspended in RPMI media supplemented with 10% FBS. The imbalance is effected by reducing Th17 cells and increasing T-cell (Treg) (FIGS. 33-35) with the ratio of Th17/Treg preferably as 1, or more preferably between 0-1 compared to RA control at 3.5 (FIG. 35).
After the stimulation, cells were collected and 2×10^5 cells were aliquoted into different tubes for evaluating Th17 and Treg population. The antibody dilutions used for the analysis were as recommended by the respective manufacturer. To evaluate Th17 population, cells were initially stained with FITC Mouse Anti-Rat CD3 (559975, BD pharmingen) and APC Mouse Anti-Rat CD4 (550057, BD pharmingen) antibodies. […] FCM was performed on a BD FACSCelesta system (BD Biosciences, Franklin Lakes, N.J., USA) and analyzed using FlowJo software.

Compound	Bax/Bcl-2 ratio (pro-apoptosis), ranking (Bax/Bcl-2)	TNF-α (inflammatory marker expression) (TNF-α)	Cathepsin (inflammatory marker expression) (Cathepsin)	IFN-γ (inflammatory marker expression) (IFN-γ)	MMP-3 (inflammatory marker expression) (MMP-3)	CCL-5 (inflammatory marker expression) (CCL-5)	inhibition of FLS proliferation, trend among curcuminoid analogues [1]	arthritis score [2]	ratio of Th17/Treg [3]
COc1cc(/C=C/C(=O)CC(=O)/C=C/c2ccc(O)c(OC)c2)ccc1O [Curcumin, curcumin]	BDMC>DMC>curcumin	3.93 ± 0.84	2.70 ± 0.14	2.7 ± 0.19	3.98 ± 0.48	3.01 ± 0.04	BDMC>curcumin>DMC		
COc1cc(/C=C/C(O)=C/C(=O)/C=C/c2ccc(O)cc2)ccc1O [DMC, demethoxycurcumin]		3.57 ± 1.77	3.69 ± 0.14	4.43 ± 0.15	4.91 ± 0.41	7.03 ± 3.03			
O=C(/C=C/c1ccc(O)cc1)CC(=O)/C=C/c1ccc(O)cc1 [BDMC, bisdemethoxycurcumin]		3.20 ± 2.1	3.36 ± 0.37	4.57 ± 0.11	6.07 ± 0.05	4.07 ± 0.05			
Cc1ccc(-c2cc(C(F)(F)F)nn2-c2ccc(S(N)(=O)=O)cc2)cc1 [celecoxib]								1	0.5
